Source: ChEMBL document CHEMBL1137150, “Factor Xa inhibitors based on a 2-carboxyindole scaffold: SAR of neutral P1 substituents” (Bioorg Med Chem Lett, 2004)

What was measured:
Coagulation factor X = Coagulation factor X (Homo sapiens, UniProt P00742); assay: Inhibitory activity against coagulation factor Xa
Serine protease 1 = Serine protease 1 (Homo sapiens, UniProt P07477); assay: […]
[1] = Percent compound remaining after 2 hr incubation with human S9 liver fraction; assay type: ADME, subcellular; settings: read-out: Activity
Prothrombin [2] = target: T1, Prothrombin (Homo sapiens, UniProt P00734); assay: Concentration required for 50% inhibition of dilute prothrombin time; assay type: functional
Prothrombin [3] = target: T1, Prothrombin; assay: Inhibitory activity against coagulation factor II (thrombin)
[4] = target: Tissue-type plasminogen activator (Homo sapiens, UniProt P00750); assay: inhibitory activity against human tissue plasminogen activator
Chain of Tissue-type plasminogen activator (P00750 whole entry): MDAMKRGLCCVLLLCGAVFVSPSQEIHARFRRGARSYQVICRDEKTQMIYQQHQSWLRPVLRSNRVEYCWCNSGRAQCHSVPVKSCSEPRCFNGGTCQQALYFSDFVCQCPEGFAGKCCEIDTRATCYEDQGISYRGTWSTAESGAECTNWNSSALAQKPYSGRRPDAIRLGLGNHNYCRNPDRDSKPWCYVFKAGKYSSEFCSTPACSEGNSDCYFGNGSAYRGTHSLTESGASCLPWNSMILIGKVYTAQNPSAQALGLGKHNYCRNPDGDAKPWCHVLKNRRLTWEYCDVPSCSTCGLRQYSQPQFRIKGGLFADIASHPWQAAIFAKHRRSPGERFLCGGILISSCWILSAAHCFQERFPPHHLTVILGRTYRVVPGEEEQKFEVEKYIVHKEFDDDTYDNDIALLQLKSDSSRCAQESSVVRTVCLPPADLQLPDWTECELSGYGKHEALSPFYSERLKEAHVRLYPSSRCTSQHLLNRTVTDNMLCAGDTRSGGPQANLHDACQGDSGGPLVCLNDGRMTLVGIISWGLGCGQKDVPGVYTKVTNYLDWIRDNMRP

Prothrombin [5] = target: T1, Prothrombin; assay: Concentration required to double plasma clotting time of prothrombin time; assay type: functional, cell-free

Chain of Serine protease 1 (P07477 whole entry): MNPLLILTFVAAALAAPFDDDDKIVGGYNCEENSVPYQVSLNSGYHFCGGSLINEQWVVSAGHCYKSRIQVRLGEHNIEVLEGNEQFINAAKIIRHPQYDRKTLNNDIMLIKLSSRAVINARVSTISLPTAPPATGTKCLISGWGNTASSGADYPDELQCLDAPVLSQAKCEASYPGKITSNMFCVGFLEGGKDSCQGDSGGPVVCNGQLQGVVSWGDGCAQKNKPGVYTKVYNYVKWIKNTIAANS
Chain of Coagulation factor X (P00742 41-179 limits assumed): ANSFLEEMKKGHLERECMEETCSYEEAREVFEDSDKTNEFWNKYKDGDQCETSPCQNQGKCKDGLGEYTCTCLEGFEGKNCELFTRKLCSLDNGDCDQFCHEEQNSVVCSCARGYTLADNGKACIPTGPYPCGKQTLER
Chain of Coagulation factor X (P00742 235-488 limits assumed): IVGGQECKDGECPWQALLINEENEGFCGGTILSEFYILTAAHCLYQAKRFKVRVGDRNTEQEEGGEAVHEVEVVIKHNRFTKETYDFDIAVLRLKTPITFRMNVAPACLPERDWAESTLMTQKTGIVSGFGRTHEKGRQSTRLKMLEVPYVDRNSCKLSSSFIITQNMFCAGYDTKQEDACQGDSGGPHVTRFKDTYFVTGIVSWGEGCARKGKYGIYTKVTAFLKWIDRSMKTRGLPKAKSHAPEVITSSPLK

| Structure (SMILES) | Ki (Coagulation factor X) | Ki (Serine protease 1) | remaining at 2 h [1] | IC50 (Prothrombin [2]) | Ki (Prothrombin [3]) | Ki [4] | other results |
| --- | --- | --- | --- | --- | --- | --- | --- |
| CC(C)N1CCC(NC(=O)c2cc3ccccc3n2Cc2cc(-c3ccc(Cl)s3)on2)CC1 | – | > 100 µM | 94% | – | – | – | – |
| CC(C)N1CCC(NC(=O)c2cc3ccccc3n2CC(=O)Nc2ccc(Cl)cc2)CC1 | – | > 100 µM | 67% | 0.02 µM | > 10 µM | > 100 µM | – |
| COc1cccc(-n2c(C(=O)NC3CCN(C(C)C)CC3)cc3ccccc32)c1 | 2.48 µM | – | – | – | – | – | – |
| COc1cccc(CCn2c(C(=O)NC3CCN(C(C)C)CC3)cc3ccccc32)c1 | > 10 µM | – | – | – | – | – | – |
| CC(C)N1CCC(NC(=O)c2cc3ccccc3n2CC(=O)Nc2ccc(Cl)cn2)CC1 | – | > 100 µM | 95% | 0.02 µM | > 10 µM | > 100 µM | – |
| CC(C)N1CCC(NC(=O)c2cc3ccccc3n2Cc2cc3ccc(Cl)cc3s2)CC1 | – | > 100 µM | 98% | 0.89 µM | 9.04 µM | > 100 µM | Concentration (Prothrombin [5]): 14.1 µM |

Further lines, with some results ahead:

| Ki (Coagulation factor X) | Structure (SMILES) | Ki (Serine protease 1) | remaining at 2 h [1] | IC50 (Prothrombin [2]) | Ki (Prothrombin [3]) | Ki [4] | other results |
| --- | --- | --- | --- | --- | --- | --- | --- |
| 0.287 µM | CC(C)N1CCC(NC(=O)c2cc3ccccc3n2CC(=O)Nc2cccc(Cl)c2)CC1 | – | – | – | – | – | – |
| 2.73 µM | CC(C)N1CCC(NC(=O)c2cc3ccccc3n2Cc2cnc(-c3ccc(Cl)cc3)s2)CC1 | – | – | – | – | – | – |
| 2.5 µM | CC(C)N1CCC(NC(=O)c2cc3ccccc3n2Cc2ccc(Cl)cc2)CC1 | – | – | – | – | – | – |
| 9.01 µM | CC(C)N1CCC(NC(=O)c2cc3ccccc3n2-c2cccc(Cl)c2)CC1 | – | – | – | – | – | – |
